{
  "source": "ChEMBL document CHEMBL5647694",
  "about": "“Novel orally bioavailable EZH1/2 dual inhibitors with greater antitumor efficacy than an EZH2 selective inhibitor” (Cancer Sci, 2017)",
  "key": {"[1]": {"test": "Toxicity in Crl:CD Sprague-Dawley rat assessed as total bilirubin level in blood at 100 mg/kg, po administered daily for 14 days (reference value: 0.003+/-0.005 mg/dL)", "format": "organism-based", "settings": "in vivo, 336 h, time 14 day"}, "[2]": {"test": "Toxicity in Crl:CD Sprague-Dawley rat assessed as reticulocyte percentile in blood at 100 mg/kg, po administered daily for 14 days (reference value: 4.68+/-0.802%)", "format": "organism-based", "settings": "in vivo, 336 h, time 14 day"}, "[3]": {"test": "Toxicity in Crl:CD Sprague-Dawley rat assessed as potassium level in blood at 100 mg/kg, po administered daily for 14 days (reference value: 4.18+/-0.189 mEq/L)", "format": "organism-based", "settings": "in vivo, 336 h, time 14 day"}, "[4]": {"target": "Tyrosine-protein kinase Tec (Homo sapiens) (UniProt P42680)", "sequence (P42680 whole entry, the tested form may be a part)": "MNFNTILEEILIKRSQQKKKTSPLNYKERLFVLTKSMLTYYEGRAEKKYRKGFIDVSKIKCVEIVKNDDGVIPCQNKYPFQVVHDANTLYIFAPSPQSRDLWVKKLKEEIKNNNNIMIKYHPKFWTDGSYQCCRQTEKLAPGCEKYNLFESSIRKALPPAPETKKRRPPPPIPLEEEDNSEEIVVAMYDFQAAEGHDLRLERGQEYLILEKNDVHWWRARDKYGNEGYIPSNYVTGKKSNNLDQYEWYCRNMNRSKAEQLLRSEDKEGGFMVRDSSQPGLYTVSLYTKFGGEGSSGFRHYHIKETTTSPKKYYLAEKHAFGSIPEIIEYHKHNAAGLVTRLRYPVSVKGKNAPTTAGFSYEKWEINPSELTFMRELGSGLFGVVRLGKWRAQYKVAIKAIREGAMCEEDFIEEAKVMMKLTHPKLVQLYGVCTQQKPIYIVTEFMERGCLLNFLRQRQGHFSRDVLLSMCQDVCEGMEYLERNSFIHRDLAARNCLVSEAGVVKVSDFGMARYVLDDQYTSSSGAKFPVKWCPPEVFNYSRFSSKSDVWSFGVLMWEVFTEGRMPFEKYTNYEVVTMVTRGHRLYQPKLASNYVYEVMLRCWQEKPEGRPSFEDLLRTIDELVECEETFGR", "test": "Inhibition of N-terminal GST-tagged human TEC catalytic domain (359 to 631 residues) expressed in baculovirus-infected Sf21 cells using Srctide as substrate at 1 uM in presence of ATP by Mobility shift assay"}, "[5]": {"test": "Toxicity in Crl:CD Sprague-Dawley rat assessed as hypertrophy of zona fasciculata/reticularis cells in adrenal at 100 mg/kg, po administered daily for 14 days by hematoxylin and eosin staining based analysis", "format": "organism-based", "settings": "in vivo, 336 h, time 14 day"}, "[6]": {"test": "Toxicity in Crl:CD Sprague-Dawley rat assessed as glucose level in blood at 100 mg/kg, po administered daily for 14 days (reference value: 193 +/-[…])", "format": "organism-based", "settings": "in vivo, 336 h, time 14 day"}, "[7]": {"test": "Toxicity in Crl:CD Sprague-Dawley rat assessed as white blood cell count in blood at 100 mg/kg, po administered daily for 14 days (reference value: 9.55+/-1.72 10^3/uL)", "format": "organism-based", "settings": "in vivo, 336 h, time 14 day"}, "[8]": {"test": "Cmax in Crl:CD Sprague-Dawley rat at 100 mg/kg, po by LC/MS/MS analysis", "format": "ADME, organism-based", "settings": "in vivo"}, "[9]": {"test": "Toxicity in Crl:CD Sprague-Dawley rat assessed as triglyceride level in blood at 100 mg/kg, po administered daily for 14 days (reference value: 132 +/-30 mg/dL)", "format": "organism-based", "settings": "in vivo, 336 h, time 14 day"}, "[10]": {"test": "Toxicity in Crl:CD Sprague-Dawley rat assessed as urea nitrogen level in blood at 100 mg/kg, po administered daily for 14 days (reference value: 16.7+/-2.39 mg/dL)", "format": "organism-based", "settings": "in vivo, 336 h, time 14 day"}, "[11]": {"test": "Toxicity in Crl:CD Sprague-Dawley rat assessed as creatinine level in blood at 100 mg/kg, po administered daily for 14 days (reference value: 0.223 +/-[…])", "format": "organism-based", "settings": "in vivo, 336 h, time 14 day"}, "MDA-MB-134-VI": {"system": "MDA-MB-134-VI", "test": "Antitumor activity against human MDA-MB-134-VI cells assessed as cell growth inhibition treated for 10 to 15 days", "format": "functional", "settings": "time 10-15 day"}, "NCI-H661": {"system": "NCI-H661", "test": "Antitumor activity against human NCI-H661 cells assessed as cell growth inhibition treated for 10 to 15 days", "format": "functional", "settings": "time 10-15 day"}, "Z-138": {"system": "Z-138", "test": "Antitumor activity against human Z138 cells assessed as cell growth inhibition treated for 10 to 15 days", "format": "functional", "settings": "time 10-15 day"}, "HCC38": {"system": "HCC38", "test": "Antitumor activity against human HCC38 cells assessed as cell growth inhibition treated for 10 to 15 days", "format": "functional", "settings": "time 10-15 day"}, "A2780": {"system": "A2780", "test": "Antitumor activity against human A2780 cells assessed as cell growth inhibition treated for 10 to 15 days", "format": "functional", "settings": "time 10-15 day"}, "PRMT5/MEP50 complex": {"target": "PRMT5/MEP50 complex (Homo sapiens, UniProt O14744+Q9BQA1)", "sequence (O14744 whole entry)": "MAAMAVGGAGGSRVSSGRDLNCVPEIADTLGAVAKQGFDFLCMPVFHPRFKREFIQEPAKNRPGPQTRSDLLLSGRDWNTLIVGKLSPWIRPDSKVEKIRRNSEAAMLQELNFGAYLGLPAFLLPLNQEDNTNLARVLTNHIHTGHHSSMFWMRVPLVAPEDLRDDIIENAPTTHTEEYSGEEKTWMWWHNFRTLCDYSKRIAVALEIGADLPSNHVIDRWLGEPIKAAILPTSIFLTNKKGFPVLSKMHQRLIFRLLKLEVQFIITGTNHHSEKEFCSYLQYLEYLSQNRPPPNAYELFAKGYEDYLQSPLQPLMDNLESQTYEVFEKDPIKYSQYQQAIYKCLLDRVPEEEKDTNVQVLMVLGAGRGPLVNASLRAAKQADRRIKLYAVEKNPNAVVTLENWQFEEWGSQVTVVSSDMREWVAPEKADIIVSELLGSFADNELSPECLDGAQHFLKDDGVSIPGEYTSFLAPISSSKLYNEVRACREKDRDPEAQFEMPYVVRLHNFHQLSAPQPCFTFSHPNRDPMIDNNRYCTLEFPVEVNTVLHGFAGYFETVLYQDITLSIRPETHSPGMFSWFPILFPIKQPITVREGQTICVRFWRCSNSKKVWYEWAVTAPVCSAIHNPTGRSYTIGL", "sequence (Q9BQA1 whole entry)": "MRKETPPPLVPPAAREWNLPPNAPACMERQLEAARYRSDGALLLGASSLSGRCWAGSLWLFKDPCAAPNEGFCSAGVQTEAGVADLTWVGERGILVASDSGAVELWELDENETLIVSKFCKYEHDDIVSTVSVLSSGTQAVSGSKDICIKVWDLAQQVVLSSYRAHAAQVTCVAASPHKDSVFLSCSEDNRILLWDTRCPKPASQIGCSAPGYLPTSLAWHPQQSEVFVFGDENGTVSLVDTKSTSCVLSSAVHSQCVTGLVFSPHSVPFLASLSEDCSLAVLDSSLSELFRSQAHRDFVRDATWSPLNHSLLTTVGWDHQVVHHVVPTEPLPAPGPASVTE", "test": "Inhibition of human PRMT5/MEP50 using Histone H2A and [3H]SAM as substrate incubated for 30 mins to 1 hr by HotSpot kinase assay", "format": "protein-complex assay"}, "[12]": {"target": "MAP kinase-activated protein kinase 2 (Homo sapiens) (UniProt P49137)", "sequence (P49137 whole entry, looked up, the tested form may be a part)": "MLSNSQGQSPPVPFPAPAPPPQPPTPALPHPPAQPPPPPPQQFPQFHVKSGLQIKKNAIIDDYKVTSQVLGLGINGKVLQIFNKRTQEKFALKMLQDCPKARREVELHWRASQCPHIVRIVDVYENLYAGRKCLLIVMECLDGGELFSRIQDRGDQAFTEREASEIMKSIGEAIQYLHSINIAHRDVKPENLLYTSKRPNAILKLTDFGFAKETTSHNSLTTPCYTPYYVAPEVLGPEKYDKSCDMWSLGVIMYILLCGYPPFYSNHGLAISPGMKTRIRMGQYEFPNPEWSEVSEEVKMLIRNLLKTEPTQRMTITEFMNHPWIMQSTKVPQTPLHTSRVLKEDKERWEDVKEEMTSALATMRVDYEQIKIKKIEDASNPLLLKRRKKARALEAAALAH", "test": "Inhibition of N-terminal GST-fused full length human MAPKAPK2 (1 to 400 residues) expressed in baculovirus expression system using GS peptide as substrate at 1 uM in presence of ATP by Mobility shift assay"}, "UACC-893": {"system": "UACC-893", "test": "Antitumor activity against human UACC-893 cells assessed as cell growth inhibition treated for 10 to 15 days", "format": "functional", "settings": "time 10-15 day"}, "CAMA-1": {"system": "CAMA-1", "test": "Antitumor activity against human CAMA-1 cells assessed as cell growth inhibition treated for 10 to 15 days", "format": "functional", "settings": "time 10-15 day"}, "ATN-1": {"system": "ATN-1", "test": "Antitumor activity against human ATN-1 cells assessed as cell growth inhibition treated for 10 to 15 days", "format": "functional", "settings": "time 10-15 day"}, "Hs 766": {"system": "Hs 766", "test": "Antitumor activity against human Hs766T cells assessed as cell growth inhibition treated for 10 to 15 days", "format": "functional", "settings": "time 10-15 day"}, "GA-10": {"system": "GA-10", "test": "Antitumor activity against human GA-10 cells assessed as cell growth inhibition treated for 10 to 15 days", "format": "functional", "settings": "time 10-15 day"}, "[13]": {"target": "Histone-lysine N-methyltransferase, H3 lysine-36 specific (Homo sapiens, UniProt Q96L73)", "sequence (Q96L73 whole entry)": "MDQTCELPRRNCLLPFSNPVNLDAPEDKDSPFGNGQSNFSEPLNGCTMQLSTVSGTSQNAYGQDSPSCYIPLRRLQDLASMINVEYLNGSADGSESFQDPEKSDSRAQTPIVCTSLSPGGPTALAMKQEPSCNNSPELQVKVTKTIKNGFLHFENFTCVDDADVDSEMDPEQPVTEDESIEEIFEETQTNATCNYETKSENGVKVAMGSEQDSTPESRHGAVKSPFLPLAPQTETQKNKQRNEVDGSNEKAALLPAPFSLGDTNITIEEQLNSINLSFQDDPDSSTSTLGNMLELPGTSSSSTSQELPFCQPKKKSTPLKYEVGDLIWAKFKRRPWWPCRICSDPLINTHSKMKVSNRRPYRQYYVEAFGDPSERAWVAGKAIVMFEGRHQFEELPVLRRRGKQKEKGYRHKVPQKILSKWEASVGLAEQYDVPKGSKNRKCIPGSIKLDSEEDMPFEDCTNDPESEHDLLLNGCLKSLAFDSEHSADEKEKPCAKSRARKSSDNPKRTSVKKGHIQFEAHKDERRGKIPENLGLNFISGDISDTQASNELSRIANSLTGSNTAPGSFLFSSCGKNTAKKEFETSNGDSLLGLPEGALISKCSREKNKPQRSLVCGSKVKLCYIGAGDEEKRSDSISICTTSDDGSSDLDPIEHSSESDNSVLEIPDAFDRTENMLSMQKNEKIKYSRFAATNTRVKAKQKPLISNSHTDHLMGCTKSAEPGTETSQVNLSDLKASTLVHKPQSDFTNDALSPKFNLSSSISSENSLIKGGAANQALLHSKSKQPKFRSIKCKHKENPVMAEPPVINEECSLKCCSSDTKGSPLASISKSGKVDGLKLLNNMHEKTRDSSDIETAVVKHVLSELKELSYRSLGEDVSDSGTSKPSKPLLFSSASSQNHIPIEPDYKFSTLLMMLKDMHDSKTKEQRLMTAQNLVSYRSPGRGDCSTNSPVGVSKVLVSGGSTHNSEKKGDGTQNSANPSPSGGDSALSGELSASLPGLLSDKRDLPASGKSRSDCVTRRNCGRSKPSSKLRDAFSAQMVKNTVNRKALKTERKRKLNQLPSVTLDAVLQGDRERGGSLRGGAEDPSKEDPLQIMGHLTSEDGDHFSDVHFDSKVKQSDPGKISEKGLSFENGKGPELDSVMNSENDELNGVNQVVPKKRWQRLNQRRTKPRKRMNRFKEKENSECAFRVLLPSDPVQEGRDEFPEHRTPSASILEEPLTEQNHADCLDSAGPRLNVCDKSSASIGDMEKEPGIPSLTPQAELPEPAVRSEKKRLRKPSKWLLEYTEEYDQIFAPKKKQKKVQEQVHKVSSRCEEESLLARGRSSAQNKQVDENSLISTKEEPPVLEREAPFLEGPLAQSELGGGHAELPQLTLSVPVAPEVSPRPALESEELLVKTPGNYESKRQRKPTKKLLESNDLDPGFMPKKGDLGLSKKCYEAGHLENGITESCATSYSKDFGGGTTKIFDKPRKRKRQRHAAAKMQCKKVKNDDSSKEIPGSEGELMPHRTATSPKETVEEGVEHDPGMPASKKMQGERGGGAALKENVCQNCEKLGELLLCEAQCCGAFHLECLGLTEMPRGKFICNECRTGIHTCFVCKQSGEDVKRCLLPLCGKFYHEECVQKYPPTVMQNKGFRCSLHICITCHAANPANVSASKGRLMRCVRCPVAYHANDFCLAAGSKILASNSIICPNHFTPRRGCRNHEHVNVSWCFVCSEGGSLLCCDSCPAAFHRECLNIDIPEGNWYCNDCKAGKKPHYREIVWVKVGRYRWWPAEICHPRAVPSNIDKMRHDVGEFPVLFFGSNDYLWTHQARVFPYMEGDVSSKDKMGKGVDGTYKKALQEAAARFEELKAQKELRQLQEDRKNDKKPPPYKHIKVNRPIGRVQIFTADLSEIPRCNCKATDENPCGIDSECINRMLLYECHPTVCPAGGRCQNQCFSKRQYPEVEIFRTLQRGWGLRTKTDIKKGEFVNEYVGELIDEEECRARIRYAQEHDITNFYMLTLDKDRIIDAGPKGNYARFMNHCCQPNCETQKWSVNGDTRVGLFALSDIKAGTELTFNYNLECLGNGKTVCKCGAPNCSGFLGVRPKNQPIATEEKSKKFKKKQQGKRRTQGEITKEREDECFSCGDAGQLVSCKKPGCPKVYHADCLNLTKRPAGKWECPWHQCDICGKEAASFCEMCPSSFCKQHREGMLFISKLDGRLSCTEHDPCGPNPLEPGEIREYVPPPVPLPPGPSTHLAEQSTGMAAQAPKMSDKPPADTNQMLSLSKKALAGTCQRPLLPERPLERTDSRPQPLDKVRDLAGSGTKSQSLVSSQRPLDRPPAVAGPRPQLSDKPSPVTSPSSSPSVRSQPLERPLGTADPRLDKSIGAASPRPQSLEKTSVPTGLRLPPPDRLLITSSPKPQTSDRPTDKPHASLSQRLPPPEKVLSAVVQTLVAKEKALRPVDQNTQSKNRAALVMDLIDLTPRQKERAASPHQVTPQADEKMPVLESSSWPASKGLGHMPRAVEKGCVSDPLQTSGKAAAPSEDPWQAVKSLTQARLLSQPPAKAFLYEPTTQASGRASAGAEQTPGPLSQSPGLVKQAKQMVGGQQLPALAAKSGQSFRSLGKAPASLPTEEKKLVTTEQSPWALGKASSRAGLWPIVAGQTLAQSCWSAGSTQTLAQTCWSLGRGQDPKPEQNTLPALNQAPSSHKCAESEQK", "test": "Inhibition of human NSD1 using Nucleosomes and [3H]SAM as substrate incubated for 30 mins to 1 hr by HotSpot kinase assay"}, "[14]": {"target": "Tyrosine-protein kinase SYK (Homo sapiens) (UniProt P43405)", "test": "Inhibition of N-terminal GST-tagged full length human SYK (1 to 635 residues) expressed in baculovirus-infected Sf21 cells using Blk/Lyntide as substrate at 1 uM in presence of ATP by Mobility shift assay"}, "[15]": {"test": "Antitumor activity against human EB1 cells assessed as cell growth inhibition treated for 10 to 15 days", "format": "functional", "settings": "time 10-15 day"}, "OCI-LY19": {"system": "OCI-LY19", "test": "Antitumor activity against human OCILY19 cells assessed as cell growth inhibition treated for 10 to 15 days", "format": "functional", "settings": "time 10-15 day"}, "[16]": {"target": "Protein arginine N-methyltransferase 3 (Homo sapiens, UniProt O60678)", "test": "Inhibition of human PRMT3 using Histone H4 and [3H]SAM as substrate incubated for 30 mins to 1 hr by HotSpot kinase assay"}, "HCC2935": {"system": "HCC2935", "test": "Antitumor activity against human HCC2935 cells assessed as cell growth inhibition treated for 10 to 15 days", "format": "functional", "settings": "time 10-15 day"}, "RKO": {"system": "RKO", "test": "Antitumor activity against human RKO cells assessed as cell growth inhibition treated for 10 to 15 days", "format": "functional", "settings": "time 10-15 day"}, "NCI-H929": {"system": "NCI-H929", "test": "Antitumor activity against human NCI-H929 cells assessed as cell growth inhibition treated for 10 to 15 days", "format": "functional", "settings": "time 10-15 day"}, "T47D": {"system": "T47D", "test": "Antitumor activity against human T47D cells assessed as cell growth inhibition treated for 10 to 15 days", "format": "functional", "settings": "time 10-15 day"}, "SUD4": {"system": "SUD4", "test": "Antitumor activity against human SU-DHL-4 cells assessed as cell growth inhibition treated for 10 to 15 days", "format": "functional", "settings": "time 10-15 day"}, "CCRF-CEM": {"system": "CCRF-CEM", "test": "Antitumor activity against human CCRF-CEM cells assessed as cell growth inhibition treated for 10 to 15 days", "format": "functional", "settings": "time 10-15 day"}, "[17]": {"target": "Protein arginine N-methyltransferase 1 (Homo sapiens, UniProt Q99873)", "sequence (Q99873 whole entry)": "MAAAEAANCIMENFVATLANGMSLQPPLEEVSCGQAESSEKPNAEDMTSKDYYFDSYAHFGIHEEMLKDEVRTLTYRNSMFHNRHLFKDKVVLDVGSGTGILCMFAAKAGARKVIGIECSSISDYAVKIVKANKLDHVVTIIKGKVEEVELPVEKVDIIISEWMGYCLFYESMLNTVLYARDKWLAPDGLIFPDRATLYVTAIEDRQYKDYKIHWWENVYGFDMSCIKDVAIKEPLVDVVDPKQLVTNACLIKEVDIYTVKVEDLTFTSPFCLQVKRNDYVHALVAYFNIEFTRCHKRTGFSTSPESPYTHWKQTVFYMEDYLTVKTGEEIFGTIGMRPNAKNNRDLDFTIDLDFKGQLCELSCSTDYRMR", "test": "Inhibition of human PRMT1 using Histone H4 and [3H]SAM as substrate incubated for 30 mins to 1 hr by HotSpot kinase assay"}, "[18]": {"test": "Antitumor activity against human HuT 102 cells assessed as cell growth inhibition treated for 10 to 15 days", "format": "functional", "settings": "time 10-15 day"}, "RL": {"system": "RL", "test": "Antitumor activity against human RL cells assessed as cell growth inhibition treated for 10 to 15 days", "format": "functional", "settings": "time 10-15 day"}, "SK-BR-3": {"system": "SK-BR-3", "test": "Antitumor activity against human SK-BR-3 cells assessed as cell growth inhibition treated for 10 to 15 days", "format": "functional", "settings": "time 10-15 day"}, "Panc1005": {"system": "Panc1005", "test": "Antitumor activity against human Panc1005 cells assessed as cell growth inhibition treated for 10 to 15 days", "format": "functional", "settings": "time 10-15 day"}},
  "data": [
    {"smiles": "Cc1cc(C)c(CNC(=O)c2cc(Br)c3c(c2C)O[C@@](C)([C@H]2CC[C@H](N(C)C)CC2)O3)c(=O)[nH]1", "values": [
      {"measurement": "Activity", "setting": "[1]", "value": 0.028, "unit": "mg/dL"},
      {"measurement": "Activity", "setting": "[2]", "value": 4.48, "unit": "%"},
      {"measurement": "Activity", "setting": "[3]", "value": 4.2, "unit": "mEq/L"},
      {"measurement": "inhibition", "setting": "[4]", "value": -10, "unit": "%"},
      {"measurement": "Activity", "setting": "[5]", "value": "Toxic"},
      {"measurement": "Activity", "setting": "[6]", "value": 216, "unit": "mg/dL"},
      {"measurement": "Activity", "setting": "[7]", "value": "4.56 10^3 /uL"},
      {"measurement": "Cmax", "setting": "[8]", "value": 2150, "unit": "nM"},
      {"measurement": "Activity", "setting": "[9]", "value": 90, "unit": "mg/dL"},
      {"measurement": "Activity", "setting": "[10]", "value": 16.8, "unit": "mg/dL"},
      {"measurement": "Activity", "setting": "[11]", "value": 0.238, "unit": "mg/dL"}
    ]},
    {"smiles": "Cc1cc(C)c(CNC(=O)c2cc(Cl)c3c(c2C)O[C@@](C)([C@H]2CC[C@H](N(C)C)CC2)O3)c(=O)[nH]1", "note": "[VALEMETOSTAT]", "values": [
      {"measurement": "GI50", "setting": "MDA-MB-134-VI", "value": "> 1000", "unit": "nM"},
      {"measurement": "GI50", "setting": "NCI-H661", "value": 359, "unit": "nM"},
      {"measurement": "GI50", "setting": "Z-138", "value": 19.1, "unit": "nM"},
      {"measurement": "GI50", "setting": "HCC38", "value": "> 1000", "unit": "nM"},
      {"measurement": "GI50", "setting": "A2780", "value": 36, "unit": "nM"},
      {"measurement": "IC50", "setting": "PRMT5/MEP50 complex", "value": 100000, "unit": "nM"},
      {"measurement": "inhibition", "setting": "[12]", "value": 6.7, "unit": "%"},
      {"measurement": "GI50", "setting": "UACC-893", "value": "> 1000", "unit": "nM"},
      {"measurement": "GI50", "setting": "CAMA-1", "value": 6.56, "unit": "nM"},
      {"measurement": "GI50", "setting": "ATN-1", "value": 43.8, "unit": "nM"},
      {"measurement": "GI50", "setting": "Hs 766", "value": "> 1000", "unit": "nM"},
      {"measurement": "GI50", "setting": "GA-10", "value": 14.9, "unit": "nM"},
      {"measurement": "IC50", "setting": "[13]", "value": 100000, "unit": "nM"},
      {"measurement": "inhibition", "setting": "[14]", "value": -8.4, "unit": "%"},
      {"measurement": "GI50", "setting": "[15]", "value": 48.2, "unit": "nM"},
      {"measurement": "GI50", "setting": "OCI-LY19", "value": "> 1000", "unit": "nM"},
      {"measurement": "IC50", "setting": "[16]", "value": 100000, "unit": "nM"},
      {"measurement": "GI50", "setting": "HCC2935", "value": "> 1000", "unit": "nM"},
      {"measurement": "GI50", "setting": "RKO", "value": "> 1000", "unit": "nM"},
      {"measurement": "GI50", "setting": "NCI-H929", "value": "> 1000", "unit": "nM"},
      {"measurement": "GI50", "setting": "T47D", "value": "> 1000", "unit": "nM"},
      {"measurement": "GI50", "setting": "SUD4", "value": 55.5, "unit": "nM"},
      {"measurement": "GI50", "setting": "CCRF-CEM", "value": "> 1000", "unit": "nM"},
      {"measurement": "IC50", "setting": "[17]", "value": 100000, "unit": "nM"},
      {"measurement": "GI50", "setting": "[18]", "value": 0.987, "unit": "nM"},
      {"measurement": "GI50", "setting": "RL", "value": "> 1000", "unit": "nM"},
      {"measurement": "GI50", "setting": "SK-BR-3", "value": 6.38, "unit": "nM"},
      {"measurement": "GI50", "setting": "Panc1005", "value": "> 1000", "unit": "nM"}
    ]}
  ]
}
